This is an account of results in PMC3210067 (Nature chemical biology, 2011).

Non-standard residues stand in square brackets, D forms with d. Residues, ends and D or L forms follow the SMILES beside them. NMeY = CN[C@@H](Cc1ccc(O)cc1)C(=O)O; NMeL = CN[C@@H](CC(C)C)C(=O)O; dNMeL = CN[C@H](CC(C)C)C(=O)O

Data set [1] can be described thus: human liver microsomal stability. The format is in vitro ADME. Conditions: liver microsomes, pH 7.4. A general note: Liver microsomes are vesicles of endoplasmic reticulum, rich in cytochrome P450 enzymes.
Data set [2] can be described thus: rat liver microsomal stability. The format is in vitro ADME. Conditions: liver microsomes, pH 7.4.
The nature of data set [3]: H/D exchange studies. The format is physicochemical. Conditions: for H/D exchange of amide N-H (in words): CDCl3, 5% MeOH-d4/0.5% HOAc-d4.
Data set [4] in a line: in vivo. Conditions: male, Wistar-Han, rat, po, 10 mg/kg.
Data set [5] in a line: human plasma stability. The format is in vitro ADME. Conditions: pH 7.4.
Setting [6] is: CDCl3, 5% CD3OD / 0.5% CD3CO2D, 297 K.

Take `CC(C)C[C@@H]1NC(=O)[C@H](CC(C)C)N(C)C(=O)[C@@H](CC(C)C)N(C)C(=O)[C@H](CO)NC(=O)[C@H](Cc2ccc(O)cc2)N(C)C(=O)[C@H]2CCCN2C1=O` [3 L^1S] (cyclo(L[dP][NMeY]S[dNMeL][NMeL])): the microsomal CLint at 1 µM in data set [1] is 54 µL/min/mg; in data set [2], 98 µL/min/mg.

For `CC(C)C[C@@H]1NC(=O)[C@H](Cc2ccc(O)cc2)NC(=O)[C@H]2CCCN2C(=O)[C@H](CC(C)C)NC(=O)[C@H](CC(C)C)NC(=O)[C@@H](CC(C)C)NC1=O` [compound 1, cyclo[Leu, D-Leu, Leu, Leu, D-Pro, Tyr]] (cyclo(LL[dP]YL[dL])), in data set [3], the “H/D exchange of amide N-H (in words)” value is “exchanged within minutes or hours”.

Regarding `CC(C)C[C@@H]1NC(=O)[C@H](CC(C)C)NC(=O)[C@@H](CC(C)C)NC(=O)[C@H](Cc2ccc(O)cc2)NC(=O)[C@H]2CCCN2C(=O)[C@H](CC(C)C)NC1=O` [compound 2] (cyclo(LLL[dP]Y[dL])), the “H/D exchange of amide N-H (in words)” value in data set [3] was “exchanged with solvent over a few hours”.

As to `CC(C)C[C@@H]1NC(=O)[C@H](Cc2ccc(O)cc2)N(C)C(=O)[C@H]2CCCN2C(=O)[C@H](CC(C)C)NC(=O)[C@H](CC(C)C)N(C)C(=O)[C@@H](CC(C)C)N(C)C1=O` [compound 3] (cyclo(L[dNMeL][NMeL]L[dP][NMeY])), in data set [3] (setting [6]), the “t1/2 (H-D exchange) NH (a)” value is listed as greater than 24 h and the “t1/2 (H-D exchange) NH (b)” value was greater than 24 h. Further, the “H/D exchange of amide N-H (in words)” value in data set [3] was “over a period of several days”. Also, the exposure (AUC) in data set [4] turned out to be 10.5 ng·h/mL.

Take `CC(C)C[C@@H]1NC(=O)[C@H](CC(C)C)N(C)C(=O)[C@@H](CC(C)C)N(C)C(=O)[C@H](Cc2ccc(O)cc2)N(C)C(=O)[C@H]2CCCN2C(=O)[C@H](CC(C)C)N(C)C1=O` [compound 4] (cyclo(L[NMeL][dP][NMeY][dNMeL][NMeL])): the microsomal CLint at 1 µM in data set [1] was greater than 320 µL/min/mg; in data set [2] it was greater than 491 µL/min/mg. In data set [5], this compound registered a half-life at 1 µM greater than 6 h. In addition, in data set [3], the “H/D exchange of amide N-H (in words)” value is “negligible exchange over 24 h”.

Take `CC(C)C[C@@H]1C(=O)N(C)[C@@H](CC(C)C)C(=O)N(C)[C@@H](CC(C)C)C(=O)N2CCC[C@@H]2C(=O)N(C)[C@@H](Cc2ccc(O)cc2)C(=O)N(C)[C@@H](CC(C)C)C(=O)N1C` [compound 5] (cyclo([NMeL][NMeL][dP][NMeY][NMeL][dNMeL])): the microsomal CLint at 1 µM in data set [1] was greater than 320 µL/min/mg; in data set [2], 317 µL/min/mg. The compound also showed a half-life at 1 µM in data set [5] greater than 6 h.

Turning to `CC(C)C[C@@H]1C(=O)N(C)[C@@H](CC(C)C)C(=O)N(C)[C@@H](CC(C)C)C(=O)N(C)[C@@H](CC(C)C)C(=O)N2CCC[C@@H]2C(=O)N(C)[C@@H](Cc2ccc(O)cc2)C(=O)N1C` [compound 6] (cyclo([NMeL][NMeL][NMeL][dP][NMeY][dNMeL])), the results for the intrinsic metabolic clearance (microsomal CLint) at 1 µM in data set [1] and in data set [2] were 191 µL/min/mg and 62.6 µL/min/mg, respectively. Besides, in data set [5], the half-life at 1 µM is greater than 6 h.

Broadly, the microsomal CLint is the rate of metabolic loss divided by the concentration. Low readings indicate greater metabolic stability, high ones faster metabolism. The term AUC denotes concentration integrated over time. As usually defined, the half-life is the time needed for the level to fall by half in the phase considered.
